According to the NIST ThermoML archive (doi:10.1016/j.jct.2008.07.005):
Numbers after ± are expanded uncertainties.

Assays:
[1] = xn = mol fraction of the nth substance listed; conditions: 283.15 K; 98.93 kPa; Liquid; x2 = 0

Row | SMILES | mass density [1] [kg/m3] | mass density (283.15 K, 101.33 kPa, Liquid) [kg/m3] | mass density (288.15 K, 101.33 kPa, Liquid) [kg/m3] | mass density (293.15 K, 101.33 kPa, Liquid) [kg/m3] | mass density (298.15 K, 101.33 kPa, Liquid) [kg/m3] | mass density (303.15 K, 101.33 kPa, Liquid) [kg/m3] | mass density (308.15 K, 101.33 kPa, Liquid) [kg/m3] | further results
1 | OCCCO [propan-1,3-diol] |  | 1056.92 ± 1.7 | 1055.67 ± 1.6 | 1053.64 ± 1.6 | 1050.37 ± 1.7 | 1047.58 ± 1.7 | 1044.25 ± 1.8 | 
2 | OCC(O)CO [glycerol] |  |  |  |  |  |  |  | mass density (283.15 K, 101.33 kPa, Metastable liquid): 1266.31 ± 2.2 kg/m3; mass density (288.15 K, 101.33 kPa, Metastable liquid): 1264.39 ± 2.1 kg/m3; mass density (293.15 K, 101.33 kPa, Metastable liquid): 1262.53 ± 2.1 kg/m3; mass density (298.15 K, 101.33 kPa, Metastable liquid): 1258.73 ± 2.1 kg/m3; mass density (303.15 K, 101.33 kPa, Metastable liquid): 1254.9 ± 2.2 kg/m3; mass density (308.15 K, 101.33 kPa, Metastable liquid): 1252.65 ± 2.2 kg/m3
3 | O [water] |  |  |  |  |  |  |  | mass density (283.15 K, 98.93 kPa, Liquid): 999.7 ± 1.3 kg/m3
4 | CCCO [propan-1-ol] |  | 811.34 ± 1.2 | 807.51 ± 1.1 | 803.65 ± 1.1 | 799.67 ± 1.1 | 795.95 ± 1.2 | 791.57 ± 1.2 | 
5 | CC(O)CO (centres undefined) [1,2-propanediol] |  | 1043.32 ± 1.5 | 1040.45 ± 1.5 | 1036.15 ± 1.4 | 1032.71 ± 1.5 | 1029.62 ± 1.5 | 1025.13 ± 1.6 | 

Now from value to compound, other results behind:

Row | mass density [1] [kg/m3] | mass density (283.15 K, 101.33 kPa, Liquid) [kg/m3] | mass density (288.15 K, 101.33 kPa, Liquid) [kg/m3] | mass density (293.15 K, 101.33 kPa, Liquid) [kg/m3] | mass density (298.15 K, 101.33 kPa, Liquid) [kg/m3] | mass density (303.15 K, 101.33 kPa, Liquid) [kg/m3] | mass density (308.15 K, 101.33 kPa, Liquid) [kg/m3] | SMILES | further results
6 | 999.7 ± 1.3 |  |  |  |  |  |  | O [water] + OCCCO | 
7 | 999.69 ± 1.3 |  |  |  |  |  |  | O [water] + CCCO | 
8 | 999.7 ± 1.3 |  |  |  |  |  |  | O [water] + CC(O)CO | 
9 | 999.7 ± 1.3 |  |  |  |  |  |  | O [water] + OCC(O)CO | 
